From patent publication US10280170B2, “Substituted 4,5,6,7-tetrahydro-pyrazolo[1,5-a]pyrazine derivatives and 5,6,7,8-tetrahydro-4H-pyrazolo[1,5-a][1,4]diazepine derivatives as Ros1 inhibitors” (Janssen Pharmaceutica NV, priority 2014, dated 2019)

Legend:
[1] = test system: Ba/F3 cells containing Ros1 wild-type protein + IL-3; assay: Ba/F3-Ros1 cell proliferation counter-screen, wild-type protein in the presence of 10 ng/ml murine IL-3; type: cell-based; details: Mus musculus, BaF3, 24 h, read-out: BaF3-ROS1 + IL3 pIC50 (converted)
In short: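 Compounds were dispensed from DMSO into plates, and 20000 Ba/F3 cells carrying wild-type Ros1 were added in phenol red-free RPMI-1640 with 10% FBS plus 10 ng/ml murine IL-3. After 24 h at 37 °C, Alamar Blue was added for 4 h and fluorescence recorded.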

[2] = molecular target: T1, Ba/F3 cells containing Ros1 wild-type protein (Homo sapiens, UniProt P08922, cells depend on it, form not given); assay: Ba/F3-Ros1 cell proliferation assay, wild-type Ros1; type: cell-based, murine; details: without IL-3
T1 construct: The background only speaks of 'a number of different unrelated proteins' and names SLC34A2-ROS1 for HCC78 cells
In short: (§1)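 Ba/F3 cells expressing wild-type, L2026M or G2032R Ros1 (20000 per well) were incubated with DMSO-solubilized compounds in phenol red-free RPMI-1640 with 10% FBS and 2 mM L-glutamine at 37 °C, 5% CO2 for 24 hours. Viability was then read by Alamar Blue fluorescence (ex 540/em 590 nm) after 4 h.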

Ros1 enzyme = molecular target: T2, Ros1 enzyme (Homo sapiens, UniProt P08922); assay: Ros1 enzymatic assay; type: biochemical; details: Ros1 enzymatic assay; read-out: ROS1 pIC50 (converted)
T2 construct: 0.5 μg/ml Ros1 enzyme
In short: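 First, compounds meet Ros1 enzyme mix plus substrate mix containing IRS-Tide and 33P-labelled ATP at 20 μM. Next, incubation lasts 120 minutes at room temperature. Then EDTA stop buffer with streptavidin beads is added for 15 minutes, and bead-bound radioactivity is imaged.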

[3] = molecular target: Ba/F3 cells containing Ros1 with G2032R mutation (Homo sapiens, UniProt P08922, G2032R, cells depend on it, form not given); assay: Ba/F3-Ros1 cell proliferation assay, G2032R crizotinib-resistance mutant; type: cell-based, murine; details: without IL-3
In short: as §1

T2 sequence (P08922 28-2347): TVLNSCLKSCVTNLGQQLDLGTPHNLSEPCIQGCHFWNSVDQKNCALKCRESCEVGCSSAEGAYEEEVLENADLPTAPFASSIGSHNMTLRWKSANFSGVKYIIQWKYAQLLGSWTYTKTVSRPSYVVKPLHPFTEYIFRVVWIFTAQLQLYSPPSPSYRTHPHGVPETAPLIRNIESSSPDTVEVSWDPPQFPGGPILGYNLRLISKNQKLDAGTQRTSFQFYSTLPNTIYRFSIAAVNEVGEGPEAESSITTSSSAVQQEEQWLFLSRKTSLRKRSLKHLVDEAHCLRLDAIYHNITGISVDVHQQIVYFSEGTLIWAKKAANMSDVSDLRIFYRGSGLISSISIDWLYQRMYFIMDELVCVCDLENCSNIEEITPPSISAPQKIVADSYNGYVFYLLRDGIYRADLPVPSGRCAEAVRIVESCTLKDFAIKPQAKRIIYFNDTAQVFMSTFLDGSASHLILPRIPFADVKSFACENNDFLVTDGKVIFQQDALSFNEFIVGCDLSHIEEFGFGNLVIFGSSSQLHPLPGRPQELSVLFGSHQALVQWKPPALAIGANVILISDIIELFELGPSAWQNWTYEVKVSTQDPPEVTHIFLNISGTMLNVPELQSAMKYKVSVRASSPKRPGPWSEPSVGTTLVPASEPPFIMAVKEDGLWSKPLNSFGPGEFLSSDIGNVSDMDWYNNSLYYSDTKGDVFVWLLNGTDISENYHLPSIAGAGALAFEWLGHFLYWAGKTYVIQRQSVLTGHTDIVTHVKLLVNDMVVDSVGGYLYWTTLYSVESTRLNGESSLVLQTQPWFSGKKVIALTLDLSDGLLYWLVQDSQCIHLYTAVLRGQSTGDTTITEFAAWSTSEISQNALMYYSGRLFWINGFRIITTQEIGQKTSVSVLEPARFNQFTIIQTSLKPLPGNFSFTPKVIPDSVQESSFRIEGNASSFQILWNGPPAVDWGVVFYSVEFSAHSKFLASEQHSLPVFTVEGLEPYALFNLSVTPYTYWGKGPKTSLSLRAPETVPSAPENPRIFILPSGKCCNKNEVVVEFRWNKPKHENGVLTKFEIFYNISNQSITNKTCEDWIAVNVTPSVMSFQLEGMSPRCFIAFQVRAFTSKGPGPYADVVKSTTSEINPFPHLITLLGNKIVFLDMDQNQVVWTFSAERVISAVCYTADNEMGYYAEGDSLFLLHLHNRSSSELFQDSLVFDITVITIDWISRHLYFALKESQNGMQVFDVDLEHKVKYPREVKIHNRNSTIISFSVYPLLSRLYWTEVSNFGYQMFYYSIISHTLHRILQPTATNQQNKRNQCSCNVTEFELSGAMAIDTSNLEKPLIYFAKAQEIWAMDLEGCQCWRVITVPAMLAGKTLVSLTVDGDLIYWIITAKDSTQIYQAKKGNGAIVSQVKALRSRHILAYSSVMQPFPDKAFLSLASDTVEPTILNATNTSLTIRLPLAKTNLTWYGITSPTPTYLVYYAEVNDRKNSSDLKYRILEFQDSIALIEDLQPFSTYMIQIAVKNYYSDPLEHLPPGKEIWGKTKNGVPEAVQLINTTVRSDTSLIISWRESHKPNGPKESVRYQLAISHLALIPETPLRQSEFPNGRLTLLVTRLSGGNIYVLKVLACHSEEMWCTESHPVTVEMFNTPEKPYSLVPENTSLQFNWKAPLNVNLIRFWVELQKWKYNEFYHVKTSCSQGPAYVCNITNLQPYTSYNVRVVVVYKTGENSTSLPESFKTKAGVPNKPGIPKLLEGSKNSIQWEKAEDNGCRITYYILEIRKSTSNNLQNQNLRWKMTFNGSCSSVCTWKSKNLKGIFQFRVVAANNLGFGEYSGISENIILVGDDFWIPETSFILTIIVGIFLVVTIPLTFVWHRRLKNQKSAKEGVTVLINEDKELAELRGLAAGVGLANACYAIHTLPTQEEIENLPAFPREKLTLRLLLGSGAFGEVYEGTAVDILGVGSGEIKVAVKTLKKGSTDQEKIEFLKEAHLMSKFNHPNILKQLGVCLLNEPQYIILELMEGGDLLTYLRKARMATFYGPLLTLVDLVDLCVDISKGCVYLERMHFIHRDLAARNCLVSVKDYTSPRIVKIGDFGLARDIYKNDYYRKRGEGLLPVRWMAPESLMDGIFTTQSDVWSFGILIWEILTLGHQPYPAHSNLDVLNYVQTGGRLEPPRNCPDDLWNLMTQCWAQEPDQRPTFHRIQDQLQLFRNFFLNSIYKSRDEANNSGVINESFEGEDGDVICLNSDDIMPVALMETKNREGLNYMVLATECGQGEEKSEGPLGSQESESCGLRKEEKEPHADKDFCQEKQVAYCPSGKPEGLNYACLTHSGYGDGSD
Sequence of Ba/F3 cells containing Ros1 with G2032R mutation (P08922 whole entry G2032R, form open): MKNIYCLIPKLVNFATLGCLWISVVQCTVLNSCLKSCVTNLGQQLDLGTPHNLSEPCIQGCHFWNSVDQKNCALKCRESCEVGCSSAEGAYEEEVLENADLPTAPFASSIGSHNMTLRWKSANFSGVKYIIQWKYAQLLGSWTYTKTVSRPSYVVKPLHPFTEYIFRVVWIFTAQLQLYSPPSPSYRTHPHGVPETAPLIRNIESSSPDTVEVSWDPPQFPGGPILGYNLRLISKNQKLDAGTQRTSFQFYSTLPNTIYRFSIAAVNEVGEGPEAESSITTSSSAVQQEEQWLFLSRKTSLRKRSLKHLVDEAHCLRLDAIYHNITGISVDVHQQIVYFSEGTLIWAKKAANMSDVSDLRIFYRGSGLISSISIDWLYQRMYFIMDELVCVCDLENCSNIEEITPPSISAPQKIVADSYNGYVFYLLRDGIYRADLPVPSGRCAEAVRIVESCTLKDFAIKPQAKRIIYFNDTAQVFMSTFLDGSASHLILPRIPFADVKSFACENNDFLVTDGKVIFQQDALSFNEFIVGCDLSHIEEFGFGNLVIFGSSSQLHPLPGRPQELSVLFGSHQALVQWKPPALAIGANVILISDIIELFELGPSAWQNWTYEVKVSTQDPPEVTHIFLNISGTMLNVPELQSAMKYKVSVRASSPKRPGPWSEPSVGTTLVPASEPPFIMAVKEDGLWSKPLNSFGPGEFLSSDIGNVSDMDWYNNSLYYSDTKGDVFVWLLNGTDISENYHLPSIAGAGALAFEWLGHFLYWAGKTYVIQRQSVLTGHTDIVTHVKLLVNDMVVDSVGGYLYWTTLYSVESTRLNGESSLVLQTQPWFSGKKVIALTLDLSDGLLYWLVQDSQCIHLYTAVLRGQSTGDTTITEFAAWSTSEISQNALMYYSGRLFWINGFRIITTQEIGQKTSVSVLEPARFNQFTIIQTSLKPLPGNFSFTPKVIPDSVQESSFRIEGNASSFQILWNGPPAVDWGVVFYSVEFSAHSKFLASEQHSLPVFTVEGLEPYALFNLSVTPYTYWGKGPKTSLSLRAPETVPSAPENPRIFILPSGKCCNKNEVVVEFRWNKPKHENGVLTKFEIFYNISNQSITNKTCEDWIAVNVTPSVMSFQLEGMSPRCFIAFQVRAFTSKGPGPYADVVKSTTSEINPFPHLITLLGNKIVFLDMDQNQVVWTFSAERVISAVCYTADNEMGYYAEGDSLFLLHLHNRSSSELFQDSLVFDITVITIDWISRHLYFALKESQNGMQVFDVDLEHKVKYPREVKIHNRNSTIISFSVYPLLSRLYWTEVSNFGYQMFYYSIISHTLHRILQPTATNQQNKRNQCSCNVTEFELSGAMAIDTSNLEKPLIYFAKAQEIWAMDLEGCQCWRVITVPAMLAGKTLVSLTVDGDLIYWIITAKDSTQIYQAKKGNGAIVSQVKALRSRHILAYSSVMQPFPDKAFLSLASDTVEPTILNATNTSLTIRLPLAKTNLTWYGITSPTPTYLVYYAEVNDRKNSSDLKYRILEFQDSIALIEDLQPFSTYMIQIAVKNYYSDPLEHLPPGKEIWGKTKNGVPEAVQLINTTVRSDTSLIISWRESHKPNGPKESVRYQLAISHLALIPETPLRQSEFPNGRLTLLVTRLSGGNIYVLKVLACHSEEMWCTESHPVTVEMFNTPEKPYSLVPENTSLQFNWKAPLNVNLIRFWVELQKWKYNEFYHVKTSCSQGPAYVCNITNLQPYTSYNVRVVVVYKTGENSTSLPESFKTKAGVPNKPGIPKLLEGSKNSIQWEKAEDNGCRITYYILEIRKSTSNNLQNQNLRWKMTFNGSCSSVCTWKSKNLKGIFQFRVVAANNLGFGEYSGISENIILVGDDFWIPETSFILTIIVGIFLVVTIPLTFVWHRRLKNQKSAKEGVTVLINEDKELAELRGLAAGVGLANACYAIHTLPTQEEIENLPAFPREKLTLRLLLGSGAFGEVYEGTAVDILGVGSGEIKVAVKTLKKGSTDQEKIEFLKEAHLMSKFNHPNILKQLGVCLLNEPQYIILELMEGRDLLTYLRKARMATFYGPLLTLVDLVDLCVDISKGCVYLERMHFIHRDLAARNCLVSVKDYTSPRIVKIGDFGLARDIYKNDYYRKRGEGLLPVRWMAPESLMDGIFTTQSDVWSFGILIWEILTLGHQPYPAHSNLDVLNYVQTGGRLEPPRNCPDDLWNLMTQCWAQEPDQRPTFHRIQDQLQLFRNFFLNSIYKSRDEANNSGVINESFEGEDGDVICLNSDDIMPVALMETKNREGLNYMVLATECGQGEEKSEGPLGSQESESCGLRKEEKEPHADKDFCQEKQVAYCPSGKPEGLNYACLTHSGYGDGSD
T1 sequence (P08922 whole entry, stated change not applied): as the sequence (P08922 whole entry G2032R, form open) above, with R2032G counted along it

## CC(C)c1ccc(COc2ccc(-c3c(-c4ccncc4)nn4c3C(=O)NCC4)cc2)cc1 [Compound 1]
[1]
  CC50: > 10000 nM
[2]
  BaF3-ROS1-IL3 pIC50: 7.6
Ros1 enzyme
  IC50: 25.1 nM
[3]
  Ba/3 Ros1 G2032R (-IL-3) pIC50: 7.0

## CC(C)c1ccc(COc2ccc(-c3c(-c4ccncc4)nn4c3C(=O)N(CCO)CC4)cc2)cc1 [Compound 2]
[1]
  CC50: > 10000 nM
[2]
  BaF3-ROS1-IL3 pIC50: 7.6
Ros1 enzyme
  IC50: 20 nM
other
  melting point: 181 °C
[3]
  Ba/3 Ros1 G2032R (-IL-3) pIC50: 7.1
